Data reported in patent publication US20150011751A1, “NOVEL TRIAZINE DERIVATIVE” (CARNA BIOSCIENCES, INC., priority 2012, published 2015).

Target: Dephosphorylated BTK (Homo sapiens, UniProt Q06187)
Assay: Test of activity inhibition against dephosphorylated BTK (mobility shift assay)

Chain of Dephosphorylated BTK (Q06187 whole entry): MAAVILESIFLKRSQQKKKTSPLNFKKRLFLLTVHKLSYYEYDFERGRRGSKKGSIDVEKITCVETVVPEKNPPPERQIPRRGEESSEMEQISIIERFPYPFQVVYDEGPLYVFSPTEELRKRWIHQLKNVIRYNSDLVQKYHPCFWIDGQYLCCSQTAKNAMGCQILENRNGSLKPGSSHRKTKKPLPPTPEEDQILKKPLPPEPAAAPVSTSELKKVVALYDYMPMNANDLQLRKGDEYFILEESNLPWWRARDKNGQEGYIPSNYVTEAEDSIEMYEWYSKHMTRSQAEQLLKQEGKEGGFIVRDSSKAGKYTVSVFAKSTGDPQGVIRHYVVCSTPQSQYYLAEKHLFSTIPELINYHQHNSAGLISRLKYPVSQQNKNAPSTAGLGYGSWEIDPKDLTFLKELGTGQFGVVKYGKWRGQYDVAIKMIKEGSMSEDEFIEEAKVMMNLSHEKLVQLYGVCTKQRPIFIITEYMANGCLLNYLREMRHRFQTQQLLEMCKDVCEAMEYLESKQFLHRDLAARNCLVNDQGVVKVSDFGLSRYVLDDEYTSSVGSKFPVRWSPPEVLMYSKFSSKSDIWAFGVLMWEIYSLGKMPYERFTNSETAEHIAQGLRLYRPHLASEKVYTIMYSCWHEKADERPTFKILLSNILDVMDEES

Structure (SMILES)	IC50
CC(C)(C)c1ccc(C(=O)Nc2cccc(-c3nc(N)nc(Nc4ccc5c(c4)OCC(=O)N5)n3)c2CO)cc1 [Example 154, N-(3-{4-Amino-6-[(3-oxo-3,4-dihydro-2H-ben-zo[b][1,4]oxazin-7-yl)amino]-1,3,5-triazin-2-yl}-2-(hydroxymeth-yl)benzyl)-4-(tert-bu-tyl)benzamide]	0.9 nM
CC(C)(C)c1ccc(C(=O)Nc2cccc(-c3nc(N)nc(Nc4ccc5c(c4)ncn5CCCO)n3)c2CO)cc1 [Example 155, N-[3-(4-Amino-6-{[1-(3-hydroxypropyl)-1H-benzo[d]imidazol-5-yl]amino}-1,3,5-triazin-2-yl)-2-(hydroxymeth-yl)phenyl]-4-(tert-butyl)benzamide]	0.8 nM
CCN(CC)CCOc1ccc(Nc2nc(N)nc(-c3cccc(NC(=O)c4ccc(C(C)(C)C)cc4)c3CO)n2)cc1 [Example 159, N-{3-[4-Amino-6-({4-[2-(diethylamino)ethoxy]phenyl}amino)-1,3,5-triazin-2-yl]-2-(hy-droxymethyl)phenyl}-4-(tert-butyl)benzamide]	5.9 nM
CC(C)(C)c1ccc(C(=O)Nc2cccc(-c3nc(N)nc(Nc4ccc(Cn5cccn5)cc4)n3)c2CO)cc1 [Example 160, N-{3-[4-({4-[(1H-Pyra-zol-1-yl)methyl]phenyl}amino)-6-amino-1,3,5-triazin-2-yl]-2-(hy-droxymethyl)phenyl}-4-(tert-butyl)benzamide]	0.8 nM
CC(C)(C)c1ccc(C(=O)Nc2cccc(-c3nc(N)nc(Nc4cccc(Cn5cccn5)c4)n3)c2CO)cc1 [Example 161, N-{3-[4-({3-[(1H-Pyra-zol-1-yl)methyl]phenyl}amino)-6-amino-1,3,5-triazin-2-yl]-2-(hy-droxymethyl)phenyl}-4-(tert-butyl)benzamide]	1.1 nM
CC(C)(C)c1ccc(C(=O)Nc2cccc(-c3nc(N)nc(Nc4cccc(Cn5cncn5)c4)n3)c2CO)cc1 [Example 162, N-{3-[4-({3-[(1H-1,2,4-Triazol-1-yl)methyl]phenyl}amino)-6-amino-1,3,5-triazin-2-yl]-2-(hydroxymethyl)phe-nyl}-4-(tert-butyl) benzamide]	0.5 nM
CC(C)(C)c1ccc(C(=O)Nc2cccc(-c3nc(N)nc(Nc4cccc(CN5CCOCC5)c4)n3)c2CO)cc1 [Example 163, N-[3-(4-Amino-6-{[3-(morpholinomethyl)phe-nyl]amino}-1,3,5-triazin-2-yl)-2-(hydroxymeth-yl)phenyl]-4-(tert-butyl)benzamide]	1 nM
CC(C)(C)c1ccc(C(=O)Nc2cccc(-c3nc(N)nc(Nc4ccc(Cn5cncn5)cc4)n3)c2CO)cc1 [Example 164, N-{3-[4-({4-[(1H-1,2,4-Triazol-1-yl)methyl]phenyl}amino)-6-amino-1,3,5-triazin-2-yl]-2-(hydroxymethyl)phe-nyl}-4-(tert-butyl) benzamide]	0.5 nM
CC(C)(C)c1ccc(C(=O)Nc2cccc(-c3nc(N)nc(Nc4cn[nH]c4)n3)c2CO)cc1 [Example 165, N-(3-{4-[(1H-Pyrazol-4-yl)amino]-6-amino-1,3,5-triazin-2-yl}-2-(hydroxymethyl)phenyl)-4-(tert-butyl)benzamide]	0.7 nM
CN(C)CCOc1ccc(Nc2nc(N)nc(-c3cccc(NC(=O)c4ccc(C(C)(C)C)cc4)c3CO)n2)cc1 [Example 166, N-{3-[4-Amino-6-({4-[2-(dimethylamino)eth-oxy]phenyl}amino)-1,3,5-triazin-2-yl]-2-(hy-droxymethyl)phenyl}-4-(tert-butyl)benzamide]	1 nM
Nc1nc(Nc2ccc(N3CCOCC3)cc2)nc(-c2cccc(NC(=O)c3ccc(C(F)(F)F)cc3)c2CO)n1 [Example 168, N-(3-{4-Amino-6-[(4-morpholinophenyl)amino]-1,3,5-triazin-2-yl}-2-(hydroxymethyl)phe-nyl)-4-(trifluorometh-yl)benzamide]	17.6 nM
Cc1nccn1-c1ccc(Nc2nc(N)nc(-c3cccc(NC(=O)c4ccc(C(C)(C)C)cc4)c3CO)n2)cc1 [Example 172, N-[3-(4-Amino-6-{[4-(2-methyl-1H-imidazol-1-yl)phenyl]amino}-1,3,5-triazin-2-yl)-2-(hy-droxymethyl)phenyl]-4-(tert-butyl)benzamide]	0.6 nM
CC(C)(C)c1ccc(C(=O)Nc2cccc(-c3nc(N)nc(Nc4ccc(Cn5ccccc5=O)cc4)n3)c2CO)cc1 [Example 173, N-{3-[4-Amino-6-({4-[(2-oxopyridin-1(2H)-yl)methyl]phenyl}amino)-1,3,5-triazin-2-yl]-2-(hydroxymethyl)phe-nyl}-4-(tert-butyl) benzamide]	0.6 nM
CC(C)(C)c1ccc(C(=O)Nc2cccc(-c3nc(N)nc(Nc4ccc(N5CCOCC5)nc4)n3)c2CO)cc1 [Example 174, N-(3-{4-Amino-6-[(6-morpholinopyridin-3-yl)amino]-1,3,5-triazin-2-yl}-2-(hydroxymeth-yl)phenyl)-4-(tert-butyl)benzamide]	1.5 nM
CC(C)(C)c1ccc(C(=O)Nc2cccc(-c3nc(N)nc(Nc4ccc(OCCO)cc4)n3)c2CO)cc1 [Example 184, N-[3-(4-Amino-6-{[4-(2-hydroxyethoxy)phenyl]amino}-1,3,5-triazin-2-yl)-2-(hydroxymeth-yl)phenyl]-4-(tert-butyl)benzamide]	0.8 nM
CC(C)(C)c1ccc(C(=O)Nc2cccc(-c3nc(N)nc(Nc4ccc(-n5ccnc5)cc4)n3)c2CO)cc1 [Example 185, N-[3-(4-{[4-(1H-Imida-zol-1-yl)phenyl]amino}-6-amino-1,3,5-triazin-2-yl)-2-(hydroxymeth-yl)phenyl]-4-(tert-butyl)benzamide]	1.2 nM
CC(C)(C)c1ccc(C(=O)Nc2cccc(-c3nc(N)nc(Nc4ccc5[nH]c(C(F)(F)F)nc5c4)n3)c2CO)cc1 [Example 187, N-[3-(4-Amino-6-{[2-(tri-fluoromethyl)-1H-benzo[d]imidazol-5-yl]amino}-1,3,5-triazin-2-yl)-2-(hydroxymeth-yl)phenyl]-4-(tert-butyl)benzamide]	5.6 nM
COc1cc(Nc2nc(N)nc(-c3cccc(NC(=O)c4ccc(C(C)(C)C)cc4)c3CO)n2)cc(OC)c1OCCCO [Example 188, N-[3-(4-Amino-6-{[4-(3-hyroxypropoxy)-3,5-dimethoxyphenyl]ami-no}-1,3,5-triazin-2-yl)-2-(hydroxymethyl)phe-nyl]-4-(tert-butyl) benzamide]	0.4 nM

Next, values leading:

IC50	Structure (SMILES)
0.5 nM	CC(C)(C)c1ccc(C(=O)Nc2cccc(-c3nc(N)nc(Nc4ccc(N5CCOC5=O)cc4)n3)c2CO)cc1 [Example 156, N-[3-(4-Amino-6-{[4-(2-oxooxazolidin-3-yl)phenyl]amino}-1,3,5-tri-azin-2-yl)-2-(hydroxy-methyl)phenyl]-4-(tert-butyl)benzamide]
1.6 nM	CC(C)(C)c1ccc(C(=O)Nc2cccc(-c3nc(N)nc(Nc4ccc(N5CCNC5=O)cc4)n3)c2CO)cc1 [Example 167, N-[3-(4-Amino-6-{[4-(2-oxoimidazolidin-1-yl)phenyl]amino}-1,3,5-triazin-2-yl)-2-(hy-droxymethyl)phenyl]-4-(tert-butyl)benzamide]
26 nM	Nc1nc(Nc2ccc(N3CCOCC3)cc2)nc(-c2cccc(NC(=O)c3ccc4c(c3)CCC4)c2CO)n1 [Example 171, N-(3-{4-Amino-6-[(4-morpholinophenyl)amino]-1,3,5-triazin-2-yl}-2-(hydroxymethyl)phe-nyl)-2,3-dihydro-1H-indene-5-carboxamide]
3.6 nM	Nc1nc(Nc2ccc(N3CCOCC3)cc2)nc(-c2cccc(NC(=O)c3cc4c(s3)CCC4)c2CO)n1 [Example 175, N-(3-{4-Amino-6-[(4-morpholinophenyl)amino]-1,3,5-triazin-2-yl}-2-(hydroxymethyl)phe-nyl)-5,6-dihydro-4H-cyclopenta[b]thiophene-2-carboxamide]
0.9 nM	Nc1nc(Nc2cnn(CCO)c2)nc(-c2cccc(N3CCc4cc(C5CC5)cc(F)c4C3=O)c2CO)n1 [Example 179, 2-[3-(4-Amino-6-{[1-(2-hydroxyethyl)-1H-py-razol-4-yl]amino}-1,3,5-triazin-2-yl)-2-(hy-droxymethyl)phenyl]-6-cyclopropyl-8-fluoro-3,4-dihydroisoquino-lin-1(1H)-one]
3.6 nM	Nc1nc(Nc2ccc(O)cc2)nc(-c2cccc(N3CCc4cc(C5CC5)cc(F)c4C3=O)c2CO)n1 [Example 182, 2-(3-{4-Amino-6-[(4-hy-droxyphenyl)amino]-1,3,5-triazin-2-yl}-2-(hydroxymethyl)phenyl)-6-cyclopropyl-8-fluoro-3,4-dihydro-isoquinolin-1(2H)-one]
2.3 nM	CN(C)CCCOc1ccc(Nc2nc(N)nc(-c3cccc(N4CCc5cc(C6CC6)cc(F)c5C4=O)c3CO)n2)cc1 [Example 183, 2-{3-[4-Amino-6-({4-[3-(dimethylamino)pro-poxy]phenyl}amino)-1,3,5-triazin-2-yl]-2-(hydroxymethyl)phenyl}-6-cyclopropyl-8-fluoro-3,4-dihydro-isoquinolin-1(2H)-one]
1.2 nM	Nc1nc(Nc2ccc(N3CCN(C=O)CC3)cc2)nc(-c2cccc(N3CCc4cc(C5CC5)cc(F)c4C3=O)c2CO)n1 [Example 189, 4-[4-({4-Amino-6-[3-(6-cyclopropyl-8-fluoro-1-oxo-3,4-dihydroiso-quinolin-2(1H)-yl)-2-(hydroxymethyl)phenyl]-1,3,5-triazin-2-yl}amino)phenyl]pipera-zine-1-carbaldehyde]
1.4 nM	N#CCc1ccc(Nc2nc(N)nc(-c3cccc(N4CCc5cc(C6CC6)cc(F)c5C4=O)c3CO)n2)cc1 [Example 190, 2-[4-({4-Amino-6-[3-(6-cyclopropyl-8-fluoro-1-oxo-3,4-dihydroiso-quinolin-2(1H)-yl)-2-(hydroxymethyl)phenyl]-1,3,5-triazin-2-yl}amino)phenyl]acetonitrile]
1 nM	Nc1nc(Nc2ccc(N3CCNCC3)cc2)nc(-c2cccc(N3CCc4cc(C5CC5)cc(F)c4C3=O)c2CO)n1 [Example 191, 2-[3-(4-Amino-6-{[4-(pipe-razin-1-yl)phenyl]amino}-1,3,5-triazin-2-yl)-2-(hydroxymeth-yl)phenyl]-6-cyclopro-pyl-8-fluoro-3,4-dihy-droisoquinolin-1(2H)-one]
